# Assay results published in ChEMBL document CHEMBL3885881, “DrugMatrix”.
# Species on record: Rattus norvegicus
# Assay: DrugMatrix - Regimen: Daily Repeat
# Assay type: toxicity, organism-based, Sprague-Dawley
# Parameters: regimen Daily Repeat, gender Male, age 6-8 weeks
# Details: in vivo, po, 25 mg/kg, route oral GAVAGE, dose level Low, […]; for ABSOLUTE BASOPHIL / ABSOLUTE EOSINOPHIL / ABSOLUTE LYMPHOCYTE / ABSOLUTE MONOCYTE / ABSOLUTE SEGMENTED NEUTROPHIL / BASOPHIL / EOSINOPHIL / ERYTHROCYTE COUNT / HEMATOCRIT / HEMOGLOBIN / LEUKOCYTE COUNT / LYMPHOCYTE / MEAN CORPUSCULAR HEMOGLOBIN / MEAN CORPUSCULAR HEMOGLOBIN CONCENTRATION / MEAN CORPUSCULAR VOLUME / MONOCYTE / NEUTROPHIL / NUCLEATED RED BLOOD CELLS / PLATELET COUNT: tissue Blood; for ALANINE AMINOTRANSFERASE / ALBUMIN / ALKALINE PHOSPHATASE / ASPARTATE AMINOTRANSFERASE / BLOOD UREA NITROGEN / CARBON DIOXIDE / CHLORIDE / CHOLESTEROL / CREATINE PHOSPHOKINASE / CREATININE / GLUCOSE / LACTATE DEHYDROGENASE / LIPASE / PHOSPHORUS / POTASSIUM / SODIUM / TOTAL BILIRUBIN / TOTAL PROTEIN / URIC ACID: tissue Plasma
compound,measurement,setting,value
O=c1ccc2ccccc2o1 [COUMARIN],ABSOLUTE BASOPHIL,"72 h, time 3 day",0 CELLS/uL
same,ABSOLUTE EOSINOPHIL,"72 h, time 3 day",0 CELLS/uL
same,ABSOLUTE LYMPHOCYTE,"72 h, time 3 day",13415.67 CELLS/uL
same,ABSOLUTE MONOCYTE,"72 h, time 3 day",244.67 CELLS/uL
same,ABSOLUTE SEGMENTED NEUTROPHIL,"72 h, time 3 day",973 CELLS/uL
same,BASOPHIL,"72 h, time 3 day",0%
same,EOSINOPHIL,"72 h, time 3 day",0%
same,ERYTHROCYTE COUNT,"72 h, time 3 day",5.76 x10E6/uL
same,HEMATOCRIT,"72 h, time 3 day",36.97%
same,HEMOGLOBIN,"72 h, time 3 day",14.6 G/DL
same,LEUKOCYTE COUNT,"72 h, time 3 day",14.63 x10E3/uL
same,LYMPHOCYTE,"72 h, time 3 day",92%
same,MEAN CORPUSCULAR HEMOGLOBIN,"72 h, time 3 day",25.4 pg
same,MEAN CORPUSCULAR HEMOGLOBIN CONCENTRATION,"72 h, time 3 day",39.5 G/DL
same,MEAN CORPUSCULAR VOLUME,"72 h, time 3 day",64.27 fL
same,MONOCYTE,"72 h, time 3 day",1.67%
same,NEUTROPHIL,"72 h, time 3 day",6.33%
same,NUCLEATED RED BLOOD CELLS,"72 h, time 3 day",0 /100WBC
same,PLATELET COUNT,"72 h, time 3 day",1015 x10E3/uL
same,ALANINE AMINOTRANSFERASE,"72 h, time 3 day",75 u/L
same,ALBUMIN,"72 h, time 3 day",4.13 G/DL
same,ALKALINE PHOSPHATASE,"72 h, time 3 day",469.67 u/L
same,ASPARTATE AMINOTRANSFERASE,"72 h, time 3 day",106.33 u/L
same,BLOOD UREA NITROGEN,"72 h, time 3 day",10.67 mg/dL
same,CARBON DIOXIDE,"72 h, time 3 day",33.67 mmol/L
same,CHLORIDE,"72 h, time 3 day",101.67 MEQ/L
same,CHOLESTEROL,"72 h, time 3 day",71.67 mg/dL
same,CREATINE PHOSPHOKINASE,"72 h, time 3 day",272.67 u/L
same,CREATININE,"72 h, time 3 day",0.12 mg/dL
same,GLUCOSE,"72 h, time 3 day",148 mg/dL
same,LACTATE DEHYDROGENASE,"72 h, time 3 day",117 u/L
same,LIPASE,"72 h, time 3 day",13.67 u/L
same,PHOSPHORUS,"72 h, time 3 day",11.83 mg/dL
same,POTASSIUM,"72 h, time 3 day",6.75 MEQ/L
same,SODIUM,"72 h, time 3 day",146.1 MEQ/L
same,TOTAL BILIRUBIN,"72 h, time 3 day",0.13 mg/dL
same,TOTAL PROTEIN,"72 h, time 3 day",5.1 G/DL
same,URIC ACID,"72 h, time 3 day",1.27 mg/dL
same,ABSOLUTE BASOPHIL,"120 h, time 5 day",0 CELLS/uL
same,ABSOLUTE EOSINOPHIL,"120 h, time 5 day",0 CELLS/uL
same,ABSOLUTE LYMPHOCYTE,"120 h, time 5 day",11975.33 CELLS/uL
same,ABSOLUTE MONOCYTE,"120 h, time 5 day",0 CELLS/uL
same,ABSOLUTE SEGMENTED NEUTROPHIL,"120 h, time 5 day",1091.33 CELLS/uL
same,BASOPHIL,"120 h, time 5 day",0%
same,EOSINOPHIL,"120 h, time 5 day",0%
same,ERYTHROCYTE COUNT,"120 h, time 5 day",5.78 x10E6/uL
same,HEMATOCRIT,"120 h, time 5 day",36.27%
same,HEMOGLOBIN,"120 h, time 5 day",14.1 G/DL
same,LEUKOCYTE COUNT,"120 h, time 5 day",13.07 x10E3/uL
same,LYMPHOCYTE,"120 h, time 5 day",91.33%
same,MEAN CORPUSCULAR HEMOGLOBIN,"120 h, time 5 day",24.4 pg
same,MEAN CORPUSCULAR HEMOGLOBIN CONCENTRATION,"120 h, time 5 day",38.9 G/DL
same,MEAN CORPUSCULAR VOLUME,"120 h, time 5 day",62.7 fL
same,MONOCYTE,"120 h, time 5 day",0%
same,NEUTROPHIL,"120 h, time 5 day",8.67%
same,NUCLEATED RED BLOOD CELLS,"120 h, time 5 day",0 /100WBC
same,PLATELET COUNT,"120 h, time 5 day",1251 x10E3/uL
same,ALANINE AMINOTRANSFERASE,"120 h, time 5 day",69 u/L
same,ALBUMIN,"120 h, time 5 day",4.17 G/DL
same,ALKALINE PHOSPHATASE,"120 h, time 5 day",466 u/L
same,ASPARTATE AMINOTRANSFERASE,"120 h, time 5 day",95.67 u/L
same,BLOOD UREA NITROGEN,"120 h, time 5 day",13.33 mg/dL
same,CARBON DIOXIDE,"120 h, time 5 day",27 mmol/L
same,CHLORIDE,"120 h, time 5 day",102.67 MEQ/L
same,CHOLESTEROL,"120 h, time 5 day",64.33 mg/dL
same,CREATINE PHOSPHOKINASE,"120 h, time 5 day",297 u/L
same,CREATININE,"120 h, time 5 day",0.17 mg/dL
same,GLUCOSE,"120 h, time 5 day",157.33 mg/dL
same,LACTATE DEHYDROGENASE,"120 h, time 5 day",402.33 u/L
same,LIPASE,"120 h, time 5 day",12.33 u/L
same,PHOSPHORUS,"120 h, time 5 day",12 mg/dL
same,POTASSIUM,"120 h, time 5 day",6.55 MEQ/L
same,SODIUM,"120 h, time 5 day",143.47 MEQ/L
same,TOTAL BILIRUBIN,"120 h, time 5 day",0.23 mg/dL
same,TOTAL PROTEIN,"120 h, time 5 day",5.73 G/DL
same,URIC ACID,"120 h, time 5 day",1.8 mg/dL
